According to PubChem BioAssay (NCI):
“And” between values parts separate entries of the source, which are not always exact repeats. Identical values can stand only once.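 1) Cells in 96-well plates. 2) Compound, 48 h, 5 concentrations. 3) Linear interpolation between surrounding doses. 4) Unreached endpoint = highest concentration. Here, GI50 denotes the concentration required for 50% inhibition of growth. The concentration for full growth arrest is given as TGI.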

What was measured:
Assay in all cases: inhibition of tumour cell growth, NCI panel, 48 h
K-562 leukemia = system: K-562 leukemia
KM12 colon = system: KM12 colon
OVCAR-5 ovarian = system: OVCAR-5 ovarian
SF-268 CNS = system: SF-268 CNS
SF-295 CNS = system: SF-295 CNS
SF-539 CNS = system: SF-539 CNS
U251 CNS = system: U251 CNS
UACC-62 melanoma = system: UACC-62 melanoma
CAKI-1 renal = system: CAKI-1 renal
NCI/ADR-RES ovarian = system: NCI/ADR-RES ovarian

Row | Structure (SMILES) | TGI (K-562 leukemia) | TGI (KM12 colon) | TGI (OVCAR-5 ovarian) | TGI (SF-268 CNS) | TGI (SF-295 CNS) | TGI (SF-539 CNS) | TGI (U251 CNS) | TGI (UACC-62 melanoma) | TGI (CAKI-1 renal) | TGI (NCI/ADR-RES ovarian) | GI50 (CAKI-1 renal) | GI50 (K-562 leukemia) | GI50 (KM12 colon) | GI50 (NCI/ADR-RES ovarian) | GI50 (OVCAR-5 ovarian) | GI50 (SF-268 CNS) | GI50 (SF-295 CNS) | GI50 (SF-539 CNS) | GI50 (U251 CNS) | GI50 (UACC-62 melanoma)
1 | COC1CCC(OS(C)(=O)=O)CO1 (stereo unspecified) | > 100 µM | > 100 µM | > 100 µM | > 100 µM | > 100 µM | > 100 µM | > 100 µM | > 100 µM |  |  |  |  |  |  |  |  |  |  |  | 
2 | CCCCC1Cc2cc(OC)ccc2-c2nc3cc(OC)ccc3n21 (stereo unspecified) (tested in a mixture with another compound) | 36.8 µM | 43.4 µM | 31.4 µM | 33.5 µM |  | 29.7 µM | 28.3 µM | 25.5 µM | 38.8 µM | 26.4 µM |  |  |  |  |  |  |  |  |  | 
3 | N=C(N)C(N=Nc1ccccc1)C(=N)N (stereo unspecified) | 99.1 µM | > 100 µM | > 100 µM | > 100 µM | > 100 µM | 38.5 µM | > 100 µM | > 100 µM | > 100 µM | > 100 µM |  |  |  |  |  |  |  |  |  | 
4 | O=C1OC(c2ccccc2)=N/C1=C/c1cccs1 | > 100 µM | > 100 µM | > 100 µM | > 100 µM | > 100 µM | > 100 µM | > 100 µM |  |  | 83.7 µM |  |  |  |  |  |  |  |  |  | 
5 | O=c1c2c([nH]c3nccn13)CCCC2 |  | > 10 µM | > 10 µM | > 10 µM | > 10 µM | > 10 µM | > 10 µM | > 10 µM | > 10 µM | > 10 µM |  |  |  |  |  |  |  |  |  | 
6 | C[N+]1(C)C2CCC1CC(OC(=O)C(CO)c1ccccc1)C2 (stereo unspecified) | > 100 µM | > 100 µM | > 100 µM | > 100 µM | > 100 µM | > 100 µM | > 100 µM | > 100 µM | > 100 µM | > 100 µM |  |  |  |  |  |  |  |  |  | 
7 | CCN(CC)/C(=C\Cl)Nc1ccccn1 | > 100 µM | > 100 µM | > 100 µM | > 100 µM | > 100 µM | > 100 µM | > 100 µM | > 100 µM | > 100 µM |  |  |  |  |  |  |  |  |  |  | 
8 | O=C1CCC(NC(=O)Cc2ccc(O)cc2)C(=O)N1 (stereo unspecified) |  | > 2500 µM | > 2500 µM | > 2500 µM | > 2500 µM |  | > 2500 µM | > 2500 µM | > 2500 µM |  |  |  |  |  |  |  |  |  |  | 
9 | CN1CCN(CCCOc2ccc3ncnc(Nc4ccc(Oc5cccc(C(F)(F)F)c5)c(Cl)c4)c3c2)CC1 | 4 µM | 4.01 µM | 3.46 µM | 3.12 µM | 3.13 µM | 3 µM | 3.2 µM |  | 3.07 µM | 8.62 µM | 1.31 µM | 1.17 µM | 1.86 µM | 2.4 µM | 1.7 µM | 1.44 µM | 1.66 µM | 1.6 µM | 1.54 µM | 
10 | O=C1CC(N2C(=O)/C(=C/C(Cl)=C\c3ccc([N+](=O)[O-])cc3)SC2=S)C(=O)N1c1ccc(Cl)cc1 (stereo unspecified) | 11.6 µM |  |  | > 100 µM | 3.24 µM | 4.14 µM | 2.47 µM | 4.3 µM | 3.28 µM | 6.19 µM | 1.13 µM | 0.692 µM |  | 1.01 µM |  | 3.07 µM | 1.4 µM | 1.69 µM | 0.478 µM | 1.77 µM
11 | COc1nc(C#CCCCC#N)nc(OC)n1 | > 100 µM | 36.3 µM | 27.8 µM | 94.4 µM | 84.6 µM | 53.7 µM | 26.7 µM | 22.8 µM | 27.2 µM | > 100 µM |  |  |  |  |  |  |  |  |  | 
12 | Cc1c(N)nc([C@H](CC(N)=O)NC[C@H](N)C(N)=O)nc1C(=O)N[C@H](C(=O)N[C@H](C)[C@@H](O)[C@H](C)C(=O)N[C@H](C(=O)NCCc1nc(-c2nc(C(=O)NCCC[S+](C)C)cs2)cs1)[C@@H](C)O)C(OC1OC(CO)C(O)C(O)C1OC1OC(CO)C(O)C(OC(N)=O)C1O)c1cnc[nH]1 (stereo partly specified) |  | 24.5 µM and 23 µM and > 100 µM |  |  |  |  |  |  |  | 12.8 µM and 4.87 µM and 5.61 µM |  |  | 4.49 µM | 1.21 µM and 1.09 µM |  |  |  |  |  | 
13 | O=C(NN1C(=O)/C(=C/c2ccc(Cl)cc2)N=C1c1ccccc1)c1c(Cl)c(Cl)c(Cl)c(Cl)c1-c1nc2ccccc2[nH]1 | 50 µM | 28.5 µM | > 100 µM | 62.5 µM | > 100 µM | > 100 µM |  | 30.9 µM | 78.8 µM | 42.2 µM |  |  |  |  |  |  |  |  |  | 
14 | CN(C)CCNc1c([N+](=O)[O-])cc2c3c(cccc13)C(=O)N(CCN(C)C)C2=O | 4.51 µM | > 26.4 µM | 4.96 µM | 4.6 µM | 6.69 µM | 8.29 µM | 6.44 µM | 3.35 µM | 6.6 µM | 9.32 µM |  |  |  |  |  |  |  |  |  | 
15 | CN1CCC23c4ccccc4NC1C21CCN(C)C3Nc2ccccc21 | > 187 µM | > 284 µM | > 375 µM |  | > 375 µM | > 375 µM | > 375 µM | > 375 µM | > 164 µM | > 375 µM |  |  |  |  |  |  |  |  |  | 
16 | Cc1nc(Cl)c(C)c(Cl)n1 | > 91.9 µM | > 100 µM | > 100 µM | > 100 µM | > 100 µM | > 100 µM | > 100 µM | > 100 µM | 0.0695 µM | > 100 µM |  |  |  |  |  |  |  |  |  | 
17 | COC1(OC)C[C@H](C)[C@@]23O[C@]24c2cc(O)c5c(c2N[C@H]3C#C/C=C\C#C[C@]14O)C(=O)c1ccccc1C5=O | 0.101 µM and 0.201 µM | 0.0847 µM and 0.108 µM | 0.169 µM and 0.111 µM |  | 0.0076 µM | 0.00304 µM | 0.0421 µM and 0.0705 µM | 0.0359 µM and 0.0324 µM | 0.00561 µM and 0.00653 µM |  | < 0.001 µM | 0.00399 µM | 0.0138 µM and 0.0249 µM | 0.00223 µM | 0.0206 µM | 0.00193 µM |  | < 0.001 µM | 0.00251 µM | 0.00204 µM
18 | COc1ccc(OC)c2sc(N3C(=O)/C(=C/c4ccccc4S)N=C3c3ccccc3)nc12 | > 100 µM | > 100 µM | > 100 µM | > 100 µM | > 100 µM | 85.4 µM | 73.8 µM | 52.2 µM | > 100 µM | > 100 µM |  |  |  |  |  |  |  |  |  | 
19 | O=C1CC(n2cccc2)c2cc(Br)sc21 (stereo unspecified) | > 100 µM | > 100 µM | > 100 µM | > 100 µM | > 100 µM | > 100 µM | > 100 µM | > 100 µM | > 100 µM | > 100 µM |  |  |  |  |  |  |  |  |  | 
20 | N#CCc1[nH]nc2nc(SCc3ccccc3)nc(N3CCCCC3)c12 | 34.6 µM | 33 µM | 36 µM | 36.7 µM | 35.3 µM | 37.8 µM | 35.2 µM |  | 34.6 µM | 32.3 µM |  |  |  |  |  |  |  |  |  | 
21 | O=C1CS(=O)(=O)C(c2cccc(Oc3ccccc3)c2)N1c1cccc(Cl)c1Cl (stereo unspecified) | 46 µM | > 100 µM | > 100 µM | 55.2 µM | > 100 µM | 46.6 µM | 37.4 µM | 30.7 µM | > 100 µM |  |  |  |  |  |  |  |  |  |  | 
22 | OC1C=C2C3CN(Cc4cc5c(cc43)OCO5)[C@H]2C[C@@H]1O (stereo partly specified) | > 100 µM | 43.9 µM | 73.3 µM | > 100 µM | > 100 µM | > 100 µM | 50.4 µM | 68.4 µM | 29.7 µM | 75.6 µM |  |  |  |  |  |  |  |  |  | 
23 | Cc1c2c(cc3c1[nH]c1ccccc13)C(c1ccc(F)cc1)=NCC2 | 5.93 µM | 7.37 µM | 9.62 µM | 19.6 µM | 2.45 µM | 2.77 µM | 5.11 µM | 2.77 µM | 4.79 µM | 2.36 µM |  |  |  |  |  |  |  |  |  | 
24 | OC(c1ccc(-c2ccccc2)cc1)(c1ccc(-c2ccccc2)cc1)c1ccc(-c2ccccc2)cc1 | > 100 µM | > 100 µM | > 100 µM | > 100 µM | > 100 µM |  | > 100 µM | > 100 µM | > 100 µM | > 100 µM |  |  |  |  |  |  |  |  |  | 
25 | CO[C@@]12C[C@@H](CNC(=O)c3cc(Br)c[nH]3)O[C@@H]1NC(=O)N2 |  | > 100 µM | > 100 µM | > 100 µM | > 100 µM | > 100 µM | > 100 µM | > 100 µM | > 100 µM | > 100 µM |  |  |  |  |  |  |  |  |  | 
26 | CCC(C)C(NC(=O)C(CCCCN)NC(=O)C(NC(=O)C(CCC(N)=O)NC(=O)C(CCCNC(=N)N)NC(C)=O)C(C)CC)C(=O)NC(Cc1c[nH]c2ccccc12)C(=O)NC(Cc1ccccc1)C(=O)NC(CCC(N)=O)C(=O)NC(CC(N)=O)C(=O)NC(CCCNC(=N)N)C(=O)NC(CCCNC(=N)N)C(=O)NC(CCSC)C(=O)NC(CCCCN)C(=O)NC(Cc1c[nH]c2ccccc12)C(=O)NC(CCCCN)C(=O)NC(CCCCN)C(N)=O (stereo unspecified) | > 50 µM | > 50 µM | 22.5 µM | > 50 µM | > 50 µM | > 50 µM | > 50 µM | > 50 µM | > 50 µM | > 50 µM |  |  |  |  |  |  |  |  |  | 
27 | O=C(O)C(Cc1ccccc1)N1C(=O)c2ccccc2C1=O (stereo unspecified) | > 100 µM | > 100 µM | > 100 µM | > 100 µM | > 100 µM | > 100 µM | > 100 µM | > 100 µM | > 100 µM | > 100 µM |  |  |  |  |  |  |  |  |  | 
28 | CC(=O)C1(c2ccccc2)CCCN(C)CC1 (stereo unspecified) |  | > 100 µM | > 100 µM |  | > 100 µM |  | > 100 µM | > 100 µM | > 100 µM | > 100 µM |  |  |  |  |  |  |  |  |  | 
